According to patent publication US20060270740A1, “Prostaglandin derivatives” (TAISHO PHARMACEUTICAL CO., LTD. and Fumie SATO, priority 2003, published 2006):
Read-outs that look alike come from different tables or passages of the source.

Key:
[1] = biological target: T1, PGD2 receptor (DP receptor) (Homo sapiens, UniProt Q13258); assay: PGD2 receptor (DP receptor) binding test, [3H]PGD2, human platelet membrane fraction; conditions: 5 nM [3H]PGD2, 4 degree C., 90 minutes, read-out: Inhibition constant Ki
T1 construct: twice centrifuged at 105,000×g for 20 minutes at 4 degree C. to obtain platelet membrane fraction as precipitate; from tissue; host or cells: human platelet membrane fraction from blood of a healthy adult
T1 sequence (Q13258 1-359): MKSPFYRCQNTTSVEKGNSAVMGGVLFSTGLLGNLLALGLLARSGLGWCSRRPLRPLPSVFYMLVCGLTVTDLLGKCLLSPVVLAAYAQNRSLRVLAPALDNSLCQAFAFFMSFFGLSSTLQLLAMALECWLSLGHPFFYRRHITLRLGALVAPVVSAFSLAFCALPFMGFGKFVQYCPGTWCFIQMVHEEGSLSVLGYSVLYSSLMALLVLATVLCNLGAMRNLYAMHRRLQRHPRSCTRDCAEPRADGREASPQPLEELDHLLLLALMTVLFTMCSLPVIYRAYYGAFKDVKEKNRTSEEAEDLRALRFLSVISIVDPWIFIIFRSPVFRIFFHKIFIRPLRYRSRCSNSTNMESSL
Procedure: The test was conducted in accordance with the method of TsurI et al. (J. Med. Chem., 40, 3504-3507 (1997)).
(1) Preparation of Human Platelet Membrane Fraction
A sample of blood drawn from a healthy adult using a plastic syringe was placed in a plastic test tube containing 3.8% sodium citrate, and after gently mixing by overturning centrifuged at room temperature at 180×g for 20 minutes to obtain platelet-rich plasma (PRP) as supernatant. The PRP was further centrifuged at room temperature at 800×g for 20 minutes to obtain platelet as precipitate. […]
The human platelet membrane fraction (0.1 mg), 5 nM [3H]PGD2, and each compound was added to 200 μl of binding reaction solution (50 mM Tris/HCl (pH 7.4), 1 mM EDTA, 10 mM MgCl2), and reaction was conducted at 4 degree C. for 90 minutes. After reaction, the mixture was filtered under vacuum using a glass fiber filter paper, and after rinsing several times with cold physiological sodium chloride solution, residual radio activity on the filter paper was measured. The quantity of nonspecific binding in the present experiment was calculated as the quantity of radioactivity when a similar experiment was conducted in the presence of 10 μM PGD2, and the quantity of specific binding was given as the value of quantity of total binding minus quantity of nonspecific binding. […]

[2] = biological target: T2, PGD2 receptor (Bos taurus, UniProt A5D7K8); assay: Competitive inhibition activity test to PGD2 receptor, cAMP production in EBTr[NBL-4] cells; assay type: cell-based, bovine; conditions: 37 degree C., 15 minutes
T2 construct: EBTr[NBL-4] cells derived from embryonic bovine trachea; endogenous in cells; host or cells: EBTr[NBL-4] cells (embryonic bovine trachea)
T2 sequence (A5D7K8 1-361): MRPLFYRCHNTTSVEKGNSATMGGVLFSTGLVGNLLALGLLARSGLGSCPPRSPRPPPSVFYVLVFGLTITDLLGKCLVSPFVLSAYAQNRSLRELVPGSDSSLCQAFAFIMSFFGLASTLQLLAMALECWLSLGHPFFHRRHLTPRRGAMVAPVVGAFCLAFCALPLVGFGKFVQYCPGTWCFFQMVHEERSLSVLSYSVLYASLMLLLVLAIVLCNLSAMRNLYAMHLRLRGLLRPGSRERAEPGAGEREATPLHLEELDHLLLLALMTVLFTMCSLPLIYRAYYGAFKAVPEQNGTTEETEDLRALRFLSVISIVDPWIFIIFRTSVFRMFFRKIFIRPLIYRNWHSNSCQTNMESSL
Procedure: EBTr[NBL-4] cells derived from embryonic bovine trachea were seeded on a micro-plate with 96 wells, at 8000 cells/well, and used for the experiment after culturing for 2 days in the presence of MEM culture medium (containing 10% calf cerum). The experiment was conducted in a MEM culture medium containing 500 μM IBMX and 10% calf serum. 100 μl of culture medium containing PGD2 and the test compound was added to initiate the reaction, and after reaction at 37 degree C. for 15 minutes, the culture medium was removed and ice-chilled PBS was added to terminate the reaction. Further, after removal of PBS, 200 μl of cytolytic agent (Lysis reagent 1) in cAMP enzymeImmunoassay system (Amersham) was added and cytolysis was brought about by shaking at room temperature for 10 minutes. The quantity of cAMP in the cytolytic agent was determined in accordance with the method described in the cAMP enzymeImmunoassay system. The inhibition activity of the test compound was calculated with the pA2 value as an indicator using the IC50 value when cAMP production quantity in the presence of 100 nM, 1 μM PGD2 was taken as 100%.

[3] = Competitive inhibition activity IC50, PGD2 (100 nM), PGD2 (100 nM) as printed, read-out: Competitive inhibition activity IC50, PGD1 (100 nM)
[4] = PGD2 (1 μM), read-out: Competitive inhibition activity IC50, PGD2 (1 μM)

| Ki [1] | IC50 [2, 3] | IC50 [2, 4] | Structure (SMILES) |
| --- | --- | --- | --- |
| 0.8 nM | 730 nM | 1160 nM | O=C(O)Cc1cccc(CC[C@@H]2[C@@H](C#C[C@@H](O)C3CCCCC3)[C@H](O)C[C@H]2Cl)c1 [Compound 38, 9-Deoxy-9β-chloro-3,4,5,16,17,18,19,20-octanol-2,6-inter-m-phenylene-15-cyclohexyl-13,14-didehydro-PGF1α] |
| 2.3 nM | 3420 nM | 5370 nM | O=C(O)Cc1ccccc1CC[C@@H]1[C@@H](C#C[C@@H](O)C2CCCCC2)[C@H](O)C[C@H]1Cl [Compound 51, 9-Deoxy-9β-chloro-3,4,5, 16, 17, 18, 19,20-octanol-2,6-inter-o-phenylene-15-cyclohexyl-13,14-didehydro-PGF1α] |
